Three compounds from patent publication US20170112877A1, “NON-TOXIC AGENT FOR A BROAD-SPECTRUM, BACTERICIDAL OR BACTERIOSTATIC TREATMENT OF ANTIBIOTIC-RESISTANT BACTERIA IN ANIMALS” (LIVELEAF, INC., priority 2015, published 2017) can be followed below.

Data set [1] has as its system E. coli. Kind of data set: Antibacterial activity against E. coli in Muller-Hinton broth. The class given is cell-based. The arrangement: key: “+” means positive identification of bacterial growth. The conditions noted are these: compound or extract alone, head 1%, 24 hours at 37° C. The source says:
(§1) The testing methods used follow the procedures set-forth by the Clinical and Laboratory Standards Institute (CLSI) and US Pharmacopeia.
(§2) E. coli was chosen as the bacteria to challenge the antibacterial activity of the bound compositions and the free hydrogen peroxide. A range of E. coli concentrations, ranging from 10-10^6 CFU/ml were used for the study. […]
(§3) Table 2 compares the antibacterial activities of each of the model compounds and extracts alone, without the formation of the bound compositions: gallic acid (a model polyphenol building block), tannic acid (a model polyphenol), pomegranate husk extract, and green tea extract were each used to challenge the E. coli alone. […]

Data set [2] can be described thus: Amount of hydrogen peroxide bound to model compounds or extracts in dry form (peroxide test strip). The class given is physicochemical. The source says: Art-recognized procedures, such as those set-forth at least in U.S. Pat. Nos. 3,860,694; 3,864,454; 4,171,280; and 4,966,762, were used as a guide for this study. […] As discussed, one of skill will appreciate that hydrogen peroxide in a free form, for example, would otherwise quickly degrade. The polyphenols were provided from model compounds or plant extracts. A dry form of the compositions was made between (i) gallic acid (a model polyphenol building block from Sigma-Aldrich) and hydrogen peroxide; (ii) tannic acid (a model polyphenol component from Sigma-Aldrich) and hydrogen peroxide; (iii) pomegranate husk extract and hydrogen peroxide; and, (iv) green tea extract and hydrogen peroxide, using the procedures taught herein, including: • i. adding a solution of 35% hydrogen peroxide slowly into each of the gallic acid powder, tannic powder, pomegranate husk extract powder, or green tea extract powder. […] The hydrogen peroxide concentration measurements were taken using standard methods to determine the amount of hydrogen peroxide that bound to the model compounds or extracts in the dry form.

For data set [3], the system named is E. coli. Put plainly: Antibacterial activity against E. coli in Muller-Hinton broth. The class given is cell-based. The arrangement: key: “+” means identifiable bacterial growth.; “−” means no bacterial growth. The following applies: 100 ppm, 24 hours at 37° C.
Text: as §1, §2, §3

Data set [4] has as its system E. coli. The data set is described as above. Format: cell-based. The conditions noted are these: 100 ppm, 24 hours at 37° C.
Text: as §1, §2, §3

Data set [5] concerns E. coli. Put plainly: Stability of hydrogen peroxide in aqueous solution, bound compositions vs free hydrogen peroxide, challenged with E. coli. The class given is physicochemical. The following applies: for hydrogen peroxide concentration: 125 ppm extract + 125 ppm H2O2 (1:1), E. coli 10^6 CFU/ml. An excerpt:
This method tests the stability of the hydrogen peroxide in the combination. The testing methods used follow the standard procedures set-forth by the Clinical and Laboratory Standards Institute (CLSI) and US Pharmacopeia. • i. E. coli was chosen as the bacteria to challenge the stability of the bound compositions and the free hydrogen peroxide. • ii. The hydrogen peroxide concentration was matched to the selected bacteria in order to form a useful curve representing hydrogen peroxide degradation over time for the samples. […] FIG. 2A compares stabilities of free hydrogen peroxide to hydrogen peroxide bound to each of: gallic acid (a model polyphenol building block), tannic acid (a model polyphenol), pomegranate husk extract, green tea extract, and Blessed thistle extract. […] John's wort, Valerian, Apple, Grape, Echinacea purpurea, Grape seed extract, and Blueberry. In both FIGS. 2A and 2B, there are curves that cannot be identified well individually, as they are identical and overlapping. […]

With `O=C(O)c1cc(O)c(O)c(O)c1` [Gallic Acid, gallic acid], the bacterial growth entry in the data set on E. coli [1] (E coli 10 CFU/ml), in the data set on E. coli [1] (E coli 10^2 CFU/ml), in the data set with E. coli [1] (E coli 10^3 CFU/ml), with E. coli [1] (E coli 10^4 CFU/ml), with E. coli [1] (E coli 10^5 CFU/ml) and in the data set on E. coli [1] (E coli 10^6 CFU/ml) was “+” throughout. Moreover, the “hydrogen peroxide bound, by total dry wt” value in data set [2] is reported as “about 3.0%”.

On to `OO` [H2O2, hydrogen peroxide], for which the bacterial growth entry in the data set on E. coli [3] (E coli 10^2 CFU/ml), in the data set on E. coli [3] (E coli 10^3 CFU/ml), in the data set with E. coli [3] (E coli 10^4 CFU/ml) and in the data set on E. coli [3] (E coli 10^5 CFU/ml) was “+” in each case. In addition, in the data set with E. coli [4], the “fate of E. coli, all concentrations” value was “managed to survive”. In addition, the hydrogen peroxide concentration was 125 ppm in the data set on E. coli [5] (0 Hours); 15 ppm in the data set on E. coli [5] (4 Hours); 0 ppm in the data set with E. coli [5] (8 Hours); 0 ppm with E. coli [5] (12 Hours); 0 ppm in the data set on E. coli [5] (16 Hours); 0 ppm in the data set on E. coli [5] (20 Hours). Besides, in the data set with E. coli [5] (24 Hours), the hydrogen peroxide concentration stood at 0 ppm. Further, the “hydrogen peroxide concentration after degradation” value in the data set on E. coli [5] (within about the first 8 hours) was around 0.0 ppm.

For `O=C(OC[C@H]1O[C@@H](OC(=O)c2cc(O)c(O)c(OC(=O)c3cc(O)c(O)c(O)c3)c2)[C@H](OC(=O)c2cc(O)c(O)c(OC(=O)c3cc(O)c(O)c(O)c3)c2)[C@@H](OC(=O)c2cc(O)c(O)c(OC(=O)c3cc(O)c(O)c(O)c3)c2)[C@@H]1OC(=O)c1cc(O)c(O)c(OC(=O)c2cc(O)c(O)c(O)c2)c1)c1cc(O)c(O)c(OC(=O)c2cc(O)c(O)c(O)c2)c1` [Tannic Acid, tannic acid], the bacterial growth result in the data set on E. coli [1] (E coli 10 CFU/ml), with E. coli [1] (E coli 10^2 CFU/ml), in the data set with E. coli [1] (E coli 10^3 CFU/ml), in the data set with E. coli [1] (E coli 10^4 CFU/ml), with E. coli [1] (E coli 10^5 CFU/ml) and with E. coli [1] (E coli 10^6 CFU/ml) was “+” in each case. Moreover, the “hydrogen peroxide bound, by total dry wt” value in data set [2] was “about 2.5%”.
